Source: US8703754B2, “6-amino-2-{[(1S)-1-methylbutyl]oxy}-9-[5-(1-piperidinyl)-7,9-dihydro-8H-purin-8-one maleate” (GlaxoSmithKline LLC, priority 2010, dated 2014)

Columns and labels:
[1] = Stability testing under ICH Q1A(R2) and Q1B conditions; format: physicochemical; settings: ICH Q1A(R2) stability and Q1B photostability conditions
[2] = tested on: Interferon-α; test: Induction of Interferon-α following intranasal dosing in the mouse; format: in vivo; settings: female BALB/c mice, 2 hours after dosing, ELISA
Method: Assay for the Induction of Interferon-α Following Intranasal Dosing in the Mouse
The compound of Reference Example 1 was dissolved in 0.2% Tween 80 in saline and administered intranasally (5 μL in total between the nostrils) to female BALB/c mice (n=6) under general anaesthesia. Animals were euthanased 2 hours after dosing and a terminal blood sample was taken and serum levels of Interferon-a measured using an ELISA assay.

[3] = tested on: TNF-α; test: Induction of TNF-α using fresh human PBMCs; format: cell-based; settings: PBMC, 24 hr, relative to 2 μM resiquimod control, read-out: mean pEC50 for induction of TNF-α (converted)
Method: (§1) Assay for the Induction of Interferon-α and TNF-α Using Fresh Human Peripheral Blood Mononuclear Cells (PBMCs)
(§2) 1 μL of test compound was transferred into 96-well tissue culture plates using a Biomek FX. Each compound was assayed in duplicate for each donor. Each plate contained a dilution series of the TLR7/8 agonist resiquimod as standard and Column 11 contained 1 μL of 200 μM resiquimod (giving a 2 μM final concentration, used to define the approximate maximal response to resiquimod).
(§3) Blood samples from two human donors were collected into sodium heparin (10 U/mL). 25 mL volumes of whole blood were overlaid onto 15 mL Histopaque in Leucosep tubes which were centrifuged at 800 g for 20 min and the band at the plasma/histopaque interface carefully removed. The collected cells were centrifuged at 2500 rpm for 10 min and the pellet resuspended in 10 mL of media (RPMI 1640 (Low endotoxin) supplemented with 10% v/v foetal calf serum (FCS, low endotoxin) 100 U/mL penicillin G, 100 μg/mL streptomycin, 10 mM L-glutamine and 1× non-essential amino acids). A 1:20 dilution of the cells was prepared using trypan blue and the cells counted using a haemocytometer.
(§4) Incubation and Assays for Interferon-α and TNF-α

[4] = tested on: IL-13; test: Allergen-driven cytokine assay using fresh human PBMCs from atopic volunteers (IL-13); format: cell-based; settings: 0.04 μM; PBMCs from three allergic donors, 10 ug/mL Timothy Grass antigen, up to 6 days
Method: (§5) Allergen-driven Cytokine Assay Using Fresh Human Peripheral Blood Mononuclear Cells (PBMCs) from Atopic Volunteers
(§6) An assay based on co-culture of atopic human donor derived peripheral blood mononuclear cells (PBMCs) with allergen and test compounds was developed. After 5-6 days culture, cell supernatants were assayed for a range of cytokines.
(§7) Each compound was assayed in triplicate at all concentrations.
(§8) Defibrinated human blood from volunteers known to be allergic to Timothy grass was centrifuged at 2500 rpm for 15 minutes. The upper layer of serum was collected and heat-inactivated at 56° C. for 30 minutes (HI-autologous serum). The lower layer of cells was resuspended in 50 mL PBS (+Ca +Mg), 25 mL diluted blood were overlaid onto 20 mL Lymphoprep in 50 ml tubes then centrifuged at 2500 rpm for 20 minutes at RT. The band at the serum/Lymphoprep interface was carefully removed. The collected cells were washed with PBS and re-suspended at 4×10^6 per mL in growth medium with HI-autologous serum. PBMCs were seeded at 0.4×10^6 cells per well in flat-bottomed 96 well plates in the presence of 10 ug/mL Timothy Grass antigen (Alk Abello) and test compounds at appropriate concentrations in a total volume of 200 μL.
(§9) Incubation and Cytokine Assays
(§10) Plates were incubated at 37° C. in 5% CO2 for up to 6 days. The cell medium from each well was harvested and stored at −20° C. prior to analysis.

[5] = tested on: IL-5; test: Allergen-driven cytokine assay using fresh human PBMCs from atopic volunteers (IL-5); format: cell-based; settings: 0.04 μM; PBMCs from three allergic donors, 10 ug/mL Timothy Grass antigen, up to 6 days
Method: as §5, §6, §7, §8, §9, §10

[6] = tested on: Interferon-α; test: Induction of Interferon-α using fresh human PBMCs; format: cell-based; settings: PBMC, 24 hr, relative to 2 μM resiquimod control, read-out: mean pEC50 for induction of IFN-α (converted)
Method: as §1, §2, §3, §4

[7] = tested on: Interferon-α; test: Induction of Interferon-α using cryopreserved human PBMCs; format: cell-based; settings: PBMC, 24 hours, normalised to 1 μM resiquimod and DMSO, read-out: mean pEC50 for induction of IFN-α (converted)
Method: Assay for the Induction of Interferon-α Using Cryopreserved Human Peripheral Blood Mononuclear Cells (PBMCs)
Serial 2-fold dilutions with DMSO were prepared and 0.25 μl dispensed into 384-well clear Greiner polypropylene plates.
Blood samples of up to 200 mL were obtained from healthy human donors. Whole blood in 25 mL volumes was overlaid onto 15 mL Ficoll gradients in Leucosep tubes, and centrifuged at 1000 g for 20 min. Cells in the band at the plasma/histopaque interface were carefully removed and washed twice with PBS (centrifuged at 400 g for 5 min to harvest). The final pellet was resuspended in freezing medium (90% Heat-inactivated serum, 10% DMSO) to a cell concentration of 4×10^7 cells/mL. The resuspended cells were then cryopreserved (frozen) using a rate controlled freezer, and stored at −140° C. for up to 4 months.
Incubation and Assay for Interferon-α
Immediately prior to assay, vials of cryopreserved (frozen) PBMCs were thawed rapidly in a water bath at 37° C. A 1:10 dilution of the cells in trypan blue was prepared and counted. […]
A multi-isoform immunoassay was used to quantify IFN-α in PBMC supernatants. […] Following three washes with PBS, 30 μl of ×2 T buffer (MSD) was added to each well and the plate was read on an MSD Sector 6000 plate reader. […]

Row | degradation under stability testing [1] | EC50 [3] [nM] | EC50 [6] [nM] | Compound | mean serum levels of Interferon-α [2] [pg/mL] | reduction of production of the Th2 cytokine IL-13 compared to the allergen control [4] [%] | reduction of production of the Th2 cytokine IL-5 compared to the allergen control [5] [%] | EC50 [7] [nM]
1 | no significant degradation | – | – | CCC[C@H](C)Oc1nc(N)c2[nH]c(=O)n(CCCCCN3CCCCC3)c2n1.O=C(O)/C=C\C(=O)O [Example 2, 6-Amino-2-{[(1S)-1-methylbutyl]oxy}-9-[5-(1-piperidinyl)pentyl]-7,9-dihydro-8H-purin-8-one, Maleate Salt] | – | – | – | –
2 | – | ≥ 316 | ≤ 1 | CCC[C@H](C)Oc1nc(N)c2[nH]c(=O)n(CCCCCN3CCCCC3)c2n1 [Reference Example 1, 6-Amino-2-{[(1S)-1-methylbutyl]oxy}-9-[5-(1-piperidinyl)pentyl]-7,9-dihydro-8H-purin-8-one] | 21029 | ≥ 50 | ≥ 50 | < 5.01
